Results taken from patent publication EP4800015A1, “AZABICYCLO DERIVATIVE AND PREPARATION METHOD THEREFOR, AND USE” (Zhejiang Hisun Pharmaceutical Co., Ltd., priority 2023, dated 2025).

biological target: T1, recombinant human WRN (Homo sapiens, UniProt Q14191); assay: Inhibition of WRN enzyme activity (ATPase), ADP-Glo Kinase Assay; assay type: biochemical; conditions: WRN protein 5 nM, Flap 0.1 nM, ATP 30 µM
T1 construct: purchased BPS 101264
Description: The following method was used to determine the degree of inhibition of recombinant human WRN ATPase activity by the compounds of the present disclosure in vitro. In this method, ADP-Glo™ Kinase Assay kit (catalog No. V9102) from Promega was used. Detailed experimental procedures can be found in the kit manual.
The experimental procedure was briefly described as follows: test compounds were first dissolved in DMSO to prepare stock solutions, followed by serial dilution using reaction buffer (30 mM Tris, pH 7.5, 2 mM MgCl2, 50 mM NaCl, 0.02% BSA, 0.1% Pluronic F127), with final concentrations of test compounds in the reaction system ranging from 1000 nM to 0.004 nM; WRN protein (purchased from BPS, catalog No. 101264), substrate 5-flap oligonucleotide (Flap26) (synthesized by Shanghai Generay Biotech Co., Ltd., sequence 5'-[…]-3'), and ATP working solution (from ADP-Glo™ Kinase Assay kit component V915A) were prepared using reaction buffer. Reactions were performed in 384-well microplates. At first the compounds and recombinant human WRN protein (final concentration 5 nM) were added to the wells and the plate was incubated at room temperature for 15 minutes, then Flap solution (final concentration 0.1 nM) and ATP solution (final concentration 30 µM) were added to the reaction solution and the plate was incubated at room temperature for 10 minutes. Subsequently, 5 µL of ADP-Glo Reagent was added to the reaction system and incubated at room temperature for 40 minutes. Then 10 µL of Kinase Detection Reagent was added to the reaction system and incubated at room temperature for 30 minutes. After the incubation was completed, chemiluminescence intensity values of each well were measured using a microplate reader in luminescence mode. The percentage inhibition of the compounds at each concentration was calculated by comparison with the luminescence intensity values of the control group (0.1% DMSO), and IC50 values of compounds were obtained by nonlinear regression analysis of compound concentration logarithm-inhibition rate using GraphPad Prism 9 software, as shown in Table 1.
The IC50 value results of the compounds of the present disclosure are expressed as AA and A, respectively as follows: "AA" indicates IC50 ≤ 1 nM; "A" indicates 1 nM < IC50 ≤ 100 nM. Table 1 IC50 of the compounds of the present disclosure for inhibiting WRN enzyme activity (ATPase)

T1 sequence (Q14191 whole entry): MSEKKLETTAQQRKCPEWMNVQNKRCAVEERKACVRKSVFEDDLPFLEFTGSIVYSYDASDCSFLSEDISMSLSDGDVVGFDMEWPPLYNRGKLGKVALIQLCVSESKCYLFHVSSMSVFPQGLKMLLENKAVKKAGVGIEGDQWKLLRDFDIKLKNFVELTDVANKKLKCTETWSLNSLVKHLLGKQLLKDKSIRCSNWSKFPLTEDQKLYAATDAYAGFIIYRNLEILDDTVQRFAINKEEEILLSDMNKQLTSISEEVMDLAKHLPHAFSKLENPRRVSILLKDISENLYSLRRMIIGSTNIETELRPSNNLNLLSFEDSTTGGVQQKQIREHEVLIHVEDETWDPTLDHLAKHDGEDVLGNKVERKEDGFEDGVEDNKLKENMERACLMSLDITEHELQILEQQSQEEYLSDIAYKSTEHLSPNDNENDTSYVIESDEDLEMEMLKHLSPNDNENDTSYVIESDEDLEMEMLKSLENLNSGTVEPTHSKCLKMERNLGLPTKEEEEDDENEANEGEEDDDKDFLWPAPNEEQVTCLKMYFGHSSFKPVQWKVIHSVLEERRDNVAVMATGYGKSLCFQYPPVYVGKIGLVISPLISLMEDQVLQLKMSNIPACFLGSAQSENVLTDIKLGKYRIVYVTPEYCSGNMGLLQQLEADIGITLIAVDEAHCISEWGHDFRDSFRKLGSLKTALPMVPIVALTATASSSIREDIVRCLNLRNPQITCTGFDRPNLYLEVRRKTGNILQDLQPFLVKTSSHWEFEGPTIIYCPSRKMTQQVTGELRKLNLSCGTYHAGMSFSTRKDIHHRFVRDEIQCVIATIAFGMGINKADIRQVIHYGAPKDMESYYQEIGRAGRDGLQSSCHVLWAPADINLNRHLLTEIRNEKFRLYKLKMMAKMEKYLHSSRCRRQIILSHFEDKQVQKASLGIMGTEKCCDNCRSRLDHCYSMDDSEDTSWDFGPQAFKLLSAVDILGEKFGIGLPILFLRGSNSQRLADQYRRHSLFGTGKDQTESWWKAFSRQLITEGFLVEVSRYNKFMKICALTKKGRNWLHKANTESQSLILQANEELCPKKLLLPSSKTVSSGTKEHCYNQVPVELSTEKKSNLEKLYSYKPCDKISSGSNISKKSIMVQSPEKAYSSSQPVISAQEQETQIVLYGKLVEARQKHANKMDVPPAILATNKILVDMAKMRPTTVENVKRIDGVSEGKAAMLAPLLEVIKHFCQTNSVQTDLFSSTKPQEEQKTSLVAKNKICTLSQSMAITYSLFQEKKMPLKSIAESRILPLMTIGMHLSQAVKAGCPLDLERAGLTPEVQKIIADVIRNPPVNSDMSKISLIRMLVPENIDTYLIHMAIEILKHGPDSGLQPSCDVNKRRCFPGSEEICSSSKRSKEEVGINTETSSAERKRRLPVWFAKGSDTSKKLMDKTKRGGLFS

| SMILES | IC50 [nM] |
| --- | --- |
| C=C(c1ccc(OC)cc1)c1nc2n(CC(=O)Nc3ccc(C(F)(F)F)cc3Cl)c(CC)c(N3CCN(C(=O)c4ncnc(C)c4O)CC3)c(=O)n2n1 [Example 83, N-(2-chloro-4-(trifluoromethyl)phenyl)-2-(5-ethyl-6-(4-(5-hydroxy-6-methylpyrimidine-4-carbonyl)piperazin-1-yl)-2-(1-(4-methoxyphenyl)vinyl)-7-oxo-[1,2,4]triazolo[1,5-a]pyrimidin-4(7H)-yl) acetamide] | 1 to 100 |

same assay, conditions: WRN protein 5 nM, Flap 0.1 nM, ATP 30 µM; read-out: IC50

| IC50 [nM] | SMILES |
| --- | --- |
| 1 to 100 | CCc1c(N2CCN(C(=O)c3ncnc(C)c3O)CC2)c(=O)n2nc(-c3ccc4ccoc4c3)cc2n1CC(=O)Nc1ccc(C(F)(F)F)cc1Cl [Example 57, 2-(2-(benzofuran-6-yl)-5-ethyl-6-(4-(5-hydroxy-6-methylpyrimidine-4-carbonyl)piperazin-1-yl)-7-oxopyrazolo[1,5-a]pyrimidin-4(7H)-yl)-N-(2-chloro-4-(trifluoromethyl)phenyl)acetamide] |
| 1 to 100 | CCc1c(N2CCN(C(=O)c3ncnc(C)c3O)CC2)c(=O)n2nc(-c3ccc4c(c3)OCC4)nc2n1CC(=O)Nc1ccc(S(F)(F)(F)(F)F)cc1 [Example 58, 2-(2-(2,3-dihydrobenzofuran-6-yl)-5-ethyl-6-(4-(5-hydroxy-6-methylpyrimidine-4-carbonyl)piperazin-1-yl)-7-oxo-[1,2,4]triazolo[1,5-a]pyrimidin-4(7H)-yl)-N-(4-(pentafluoro-λ^6-sulfaneyl)phenyl)acetamide] |
| 1 to 100 | CCc1c(N2CCN(C(=O)c3ncnc(C)c3O)CC2)c(=O)n2nc(C3=CCCCCC3)cc2n1CC(=O)Nc1ccc(S(F)(F)(F)(F)F)cc1 [Example 59, 2-(2-(cyclohept-1-en-1-yl)-5-ethyl-6-(4-(5-hydroxy-6-methylpyrimidine-4-carbonyl)piperazin-1-yl)-7-oxopyrazolo[1,5-a]pyrimidin-4(7H)-yl)-N-(4-(pentafluoro-λ^6-sulfaneyl)phenyl)acetamide] |
| 1 to 100 | CCc1c(N2CCN(C(=O)c3ncnc(C)c3O)CC2)c(=O)n2nc(C(C)=C3CCC3)nc2n1CC(=O)Nc1ccc(C(F)(F)F)cc1Cl [Example 60, N-(2-chloro-4-(trifluoromethyl)phenyl)-2-(2-(1-cyclobutylideneethyl)-5-ethyl-6-(4-(5-hydroxy-6-methylpyrimidine-4-carbonyl)piperazin-1-yl)-7-oxo-[1,2,4]triazolo[1,5-a]pyrimidin-4(7H)-yl)ace tamide] |
| 1 to 100 | CCc1c(N2CCN(C(=O)c3ncnc(C)c3O)CC2)c(=O)n2nc(C(C)=C3CCC3)nc2n1CC(=O)Nc1ccc(S(F)(F)(F)(F)F)cc1 [Example 61, 2-(2-(1-cyclobutylideneethyl)-5-ethyl-6-(4-(5-hydroxy-6-methylpyrimidine-4-carbonyl)piperazin-1-yl)-7-oxo-[1,2,4]triazolo[1,5-a]pyrimidin-4(7H)-yl)-N-(4-(pentafluoro-λ^6-sulfaneyl)phenyl)ace tamide] |
| 1 to 100 | CCc1c(N2CCN(C(=O)c3ncnc(C)c3O)CC2)c(=O)n2nc(C3=CCC4(CC3)CC4)nc2n1CC(=O)Nc1ccc(C(F)(F)F)cc1Cl [Example 64, N-(2-Chloro-4-(trifluoromethyl)phenyl)-2-(5-ethyl-6-(4-(5-hydroxy-6-methylpyrimidine-4-carbonyl)piperazin-1-yl)-7-oxo-2-(spiro[2.5]oct-5-en-6-yl)-[1,2,4]triazolo[1,5-a]pyrimidin-4(7H)-yl)ac etamide] |
| 1 to 100 | CCc1c(N2CCN(C(=O)c3ncccc3O)CC2)c(=O)n2nc(C3=Cc4ccccc4C3)nc2n1CC(=O)Nc1ccc(C(F)(F)F)cc1Cl [Example 72, N-(2-chloro-4-(trifluoromethyl)phenyl)-2-(5-ethyl-6-(4-(3-hydroxypicolinoyl)piperazin-1-yl)-2-(1H-inden-2-yl)-7-oxo-[1,2,4]triazolo[1,5-a]pyrimidin-4(7H)-yl)acetamide] |
| 1 to 100 | CCc1c(N2CCN(C(=O)c3ncccc3O)CC2)c(=O)n2nc(-c3cc4ccccc4o3)nc2n1CC(=O)Nc1ccc(C(F)(F)F)cc1Cl [Example 75, 2-(2-(benzofuran-2-yl)-5-ethyl-6-(4-(3-hydroxypicolinoyl)piperazin-1-yl)-7-oxo-[1,2,4]triazolo[1 ,5-a]pyrimidin-4(7H)-yl)-N-(2-chloro-4-(trifluoromethyl)phenyl)acetamide] |
| 1 to 100 | CCc1c(N2CCN(C(=O)c3ncccc3O)CC2)c(=O)n2nc(-c3ccc4ccoc4c3)nc2n1CC(=O)Nc1ccc(S(F)(F)(F)(F)F)cc1 [Example 78, 2-(2-(benzofuran-6-yl)-5-ethyl-6-(4-(3-hydroxypicolinoyl)piperazin-1-yl)-7-oxo-[1,2,4]triazolo[1 ,5-a]pyrimidin-4(7H)-yl)-N-(4-(pentafluoro-λ^6-sulfaneyl)phenyl)acetamide] |
| 1 to 100 | CCc1c(N2CCN(C(=O)c3ncccc3O)CC2)c(=O)n2nc(-c3cc4ccccc4s3)nc2n1CC(=O)Nc1ccc(C(F)(F)F)cc1Cl [Example 79, 2-(2-(benzo[b]thiophen-2-yl)-5-ethyl-6-(4-(3-hydroxypicolinoyl)piperazin-1-yl)-7-oxo-[1,2,4]triazolo[1,5-a]pyrimidin-4(7H)-yl)-N-(2-chloro-4-(trifluoromethyl)phenyl)acetamide] |
| 1 to 100 | CCc1c(N2CCN(C(=O)c3ncnc(C)c3O)CC2)c(=O)n2nc(-c3ccc4c(c3)OCC4)nc2n1CC(=O)Nc1ccc(C(F)(F)F)cc1Cl [Example 81, N-(2-chloro-4-(trifluoromethyl)phenyl)-2-(2-(2,3-dihydrobenzofuran-6-yl)-5-ethyl-6-(4-(5-hydroxy-6-methylpyrimidine-4-carbonyl)piperazin-1-yl)-7-oxo-[1,2,4]triazolo[1,5-a]pyrimidin-4(7H)-yl)acetamide] |
| 1 to 100 | CCc1c(N2CCN(C(=O)c3ncnc(C)c3O)CC2)c(=O)n2nc(-c3ccc4c(c3)CCO4)cc2n1CC(=O)Nc1ccc(C(F)(F)F)cc1Cl [Example 82, N-(2-chloro-4-(trifluoromethyl)phenyl)-2-(2-(2,3-dihydrobenzofuran-5-yl)-5-ethyl-6-(4-(5-hydroxy-6-methylpyrimidine-4-carbonyl)piperazin-1-yl)-7-oxopyrazolo[1,5-a]pyrimidin-4(7H)-yl)acet amide] |
| 1 to 100 | CCc1c(N2CCN(C(=O)c3ncnc(C)c3O)CC2)c(=O)n2nc(-c3ccc4ccoc4c3)nc2n1CC(=O)Nc1ccc(SC(F)(F)F)cc1 [Example 90, 2-(2-(benzofuran-6-yl)-5-ethyl-6-(4-(5-hydroxy-6-methylpyrimidine-4-carbonyl)piperazin-1-yl)-7-oxo-[1,2,4]triazolo[1,5-a]pyrimidin-4(7H)-yl)-N-(4-((trifluoromethyl)thio)phenyl)acetamide] |
| 1 to 100 | CCc1c(C2CCN(C(=O)c3ncnc(C)c3O)CC2)c(=O)n2nc(C3=CCCCCC3)nc2n1CC(=O)Nc1ccc(S(F)(F)(F)(F)F)cc1 [Example 92, 2-(2-(cyclohept-1-en-1-yl)-5-ethyl-6-(1-(5-hydroxy-6-methylpyrimidine-4-carbonyl)piperidin-4-yl)-7-oxo-[1,2,4]triazolo[1,5-a]pyrimidin-4(7H)-yl)-N-(4-(pentafluoro-λ^6-sulfaneyl)phenyl)acetamide] |
| 1 to 100 | CCc1c(N2CCCN(C(=O)c3ncnc(C)c3O)CC2)c(=O)n2nc(C3=CCCCCC3)nc2n1CC(=O)Nc1ccc(S(F)(F)(F)(F)F)cc1 [Example 94, 2-(2-(cyclohept-1-en-1-yl)-5-ethyl-6-(4-(5-hydroxy-6-methylpyrimidine-4-carbonyl)-1,4-diazepan-1-yl)-7-oxo-[1,2,4]triazolo[1,5-a]pyrimidin-4(7H)-yl)-N-(4-(pentafluoro-λ^6-sulfaneyl)phenyl)a cetamide] |
| < 1 | CCc1c(N2CCN(C(=O)c3ncnc(C)c3O)CC2)c(=O)n2nc(C3=CCCCCC3)nc2n1CC(=O)Nc1ccc(OC(F)(F)F)cc1 [Example 95, 2-(2-(cyclohept-1-en-1-yl)-5-ethyl-6-(4-(5-hydroxy-6-methylpyrimidine-4-carbonyl)piperazin-1-yl)-7-oxo-[1,2,4]triazolo[1,5-a]pyrimidin-4(7H)-yl)-N-(4-(trifluoromethoxy)phenyl)acetamide] |
| 1 to 100 | CCc1c(N2CCN(C(=O)c3ncnc(C)c3O)CC2)c(=O)n2nc(-c3ccc4scnc4c3)nc2n1CC(=O)Nc1ccc(C(F)(F)F)cc1Cl [Example 100, 2-(2-(benzo[d]thiazol-5-yl)-5-ethyl-6-(4-(5-hydroxy-6-methylpyrimidine-4-carbonyl)piperazin-1-yl)-7-oxo-[1,2,4]triazolo[1,5-a]pyrimidin-4(7H)-yl)-N-(2-chloro-4-(trifluoromethyl)phenyl)acetamide] |
